Source: patent US6492414B1, “Methods and compositions for the treatment and prevention of lung disease” (Allergan, Inc., priority 1999, dated 2002)

Legend:
[1] = test system: Sprague-Dawley rat pups; assay: Alveolus formation (septation) in newborn rat pups, daily intraperitoneal injection, lung histology and morphometry; assay type: in vivo
Description: This retinoid, termed AGN 193174, has a structure defined by the formula [drawing 1]
Following sacrifice, rat lungs were fixed and histological sections prepared essentially as described in Massaro et al., Am. J. Physiol. 270: L305 (1996), incorporated by reference herein. The histological sections were viewed and photographs taken under light microscopy.
The differences in alveolar dimensions between =treated and untreated rat pups were so pronounced, they were quantitated by measuring the distance between alveolar walls (Lm) and the surface-to-volume ratio (S/V) of the gas-exchange structures (septa). The Lm in cottonseed oil-treated rats was 80 μm±2.8 μm (N=4) compared to 110 μm±7.3 μm (N=3) in RARβ agonist-treated rats (N=3; P=0.03 by Mann Whitney nonparametric analysis). The S/V was 504 μm^−1±18 μm^−1(N=4) in cottonseed oil-treated rats compared to 365 μm^−1±23 μm^−1(N=3) in RARβ agonist-treated rats (P=0.03).

[2] = test system: RARβ; assay: RAR isotype activity stated for the retinoid ligand (RARβ)
[3] = target: T1, RARγ (Homo sapiens, UniProt P13631); assay: RAR isotype activity stated for the retinoid ligand (RARγ)
T1 sequence (P13631 1-454): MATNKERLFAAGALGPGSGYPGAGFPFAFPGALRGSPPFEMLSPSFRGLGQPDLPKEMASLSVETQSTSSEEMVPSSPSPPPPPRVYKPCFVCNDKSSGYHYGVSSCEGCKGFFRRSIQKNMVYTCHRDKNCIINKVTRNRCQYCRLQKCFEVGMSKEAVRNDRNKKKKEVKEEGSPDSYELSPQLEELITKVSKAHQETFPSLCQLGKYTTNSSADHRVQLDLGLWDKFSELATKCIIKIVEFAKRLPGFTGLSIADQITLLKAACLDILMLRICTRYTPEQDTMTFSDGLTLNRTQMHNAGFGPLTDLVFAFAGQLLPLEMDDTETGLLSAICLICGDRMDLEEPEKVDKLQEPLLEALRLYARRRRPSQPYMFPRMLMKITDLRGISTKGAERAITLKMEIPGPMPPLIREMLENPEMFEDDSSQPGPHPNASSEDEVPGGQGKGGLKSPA

[4] = test system: RAR receptors; assay: Receptor class specificity, RAR versus RXR
[5] = test system: rats treated with elastase; conditions: cited from earlier work
[6] = test system: newborn rats; conditions: cited from earlier work
[7] = test system: all RAR isotypes; conditions: cited from earlier work

| activity at RARγ [3] | Structure (SMILES) | alveolar size and degree of septation in histological sections versus cottonseed oil alone ([1]; age 14 days, treated daily from age 3 through 13 days, FIGS. 1A and 1B) | Lung volume versus cottonseed oil-treated rats ([1]; rat pups, 500 micrograms per kg i.p. daily from age 3 to 13 days) | activity at RARβ (agonist) [2] | activity at RARβ (antagonist (so in the source)) [2] | specificity RAR versus RXR receptors [4] | effect on elastase-induced destruction of alveolar walls [5] | effect on number of alveoli [6] | agonist activity at RAR isotypes [7] |
| --- | --- | --- | --- | --- | --- | --- | --- | --- | --- |
| antagonist activity | CC1(C)CC=C(c2cccs2)c2cc(C#Cc3ccc(C(=O)O)cc3)ccc21 [AGN 193174] | alveoli were larger, and the degree of sepatation less | the same in both rat groups | RARβ agonist activity | antagonist activity | specific to RAR receptors and not to RXR receptors |  |  |  |
|  | CC1=C(/C=C/C(C)=C/C=C/C(C)=C/C(=O)O)C(C)(C)CCC1 [ATRA, all-trans-retinoic acid] |  |  |  |  |  | appeared to reverse this destruction | induced the formation of an increased number of alveoli in rats without enlarging the lung | an agonist of all RAR isotypes |
